According to patent US20190255144A1, “SPECIFIC OLIGOPEPTIDES AS ANTI-ANGIOGENIC DRUGS” (NEURONAX, priority 2014, published 2019):
“And” between values parts separate entries of the source, which are not always exact repeats. Equal values may be shown once.

How the values were obtained:
HBMEC cells = assay: ELISA Cell Death test for induction of the apoptosis on the HBMEC cells; format: cell-based, human; conditions: basal medium
Procedure: The apoptosis process is accompanied by the fragmentation of DNA and thus generates soluble nucleosomes (cytoplasmic histones associated with fragmented DNA), which can be metered by an immunoenzymatic method, ELISA Cell Death Plus (Enzyme-Linked ImmunoSorbent Assay) Kit (Roche Molecular Diagnostics, France) according to the recommendations of the supplier. The HBMEC cells were inoculated in a 24-well plate at the density of 5.10^3 cells/wells and allowed to stand for 24 hours. The cells are cultivated in a basal medium, i.e., in the absence of growth factors, which is changed before they are exposed to various treatments for 24 hours. They are then recovered and then centrifuged with 200 g for 5 minutes. The cells are then counted, and then adjusted to 3.10^4 cells/mL in PBS. A new centrifuging with 200 g is carried out for 10 minutes. The supernatant is removed, and the cell pellet is taken up in 200 μl of lysis buffer before incubation for 30 minutes at ambient temperature. After a new centrifuging for 10 minutes at 1,400 rpm, 20 μL of supernatant is distributed in wells coated with streptavidin and each condition is carried out in duplicate. 80 μL of the immunoreagent solution is added into each well. […] The reaction is then halted by adding 100 μL of ABTS stop solution, and the results are then analyzed using a 405-nm plaque reader. […]

U87-MG cells = assay: Proteome array of supernatants of U87-MG cells (proteins involved in angiogenesis); format: cell-based; conditions: for DPPIV/CD 26, proteome array / Endoglin/CD105, proteome array / Endothelin-1 (ET-1), proteome array / IGFBP-1, proteome array / IGFBP-3, proteome array / IL-8/CXCL8, proteome array / MCP-1/CCL2, proteome array / NRG1-β1/HRG1-β1, proteome array / Pentraxin 3 (PTX3)/TSG-14, proteome array / Serpin E1/Pal-1, proteome array / TIMP-1, proteome array / TIMP-4, proteome array / TSP-1, proteome array / VEGF, proteome array / uPA, proteome array: supernatant of U87-MG after treatment
Source text: (§1) FIGS. 2A to 2C represent analysis results of soluble factors that occur in angiogenesis: • Supernatants of U87-MG cells were studied by proteome array (FIGS. 2A and 2B) for the research of proteins involved in angiogenesis, in the presence of sterile water, TSP-1 and the oligopeptide according to the invention. The secretions of VEGFA via the U87-MG in the medium after treatments with sterile water, TSP-1 and the oligopeptide according to the invention, were metered by ELISA from supernatants (FIG. 2C).

[1] = test system: secretions of VEGFA via the U87-MG; assay: ELISA metering of VEGF in the supernatant of U87-MG; format: cell-based; conditions: for VEGF ELISA reading, Val1 / VEGF ELISA reading, Val2 / VEGF Mean / VEGF pg/mL1 / VEGF pg/mL2 / VEGF ELISA reading, Mean: supernatant of U87-MG (SN U87) after treatment; for VEGF ELISA reading, Mean: mean of Val1 and Val2
Source text: as §1

[2] = test system: tumors from subcutaneous heterotopic grafts; assay: Tumors from subcutaneous heterotopic grafts in nude mouse: Ki67, CD31, tumor volume; format: in vivo; conditions: for Tumor Volume D0: day 0 after injection of cancer cells, treatment in hydrogel injected on 21st day; for Tumor Volume D5: day 5 after injection of cancer cells; for Tumor Volume D5 / Tumor Volume D12 / Tumor Volume D17 / Tumor Volume D19: before treatment (21st day); for Tumor Volume D12: day 12 after injection of cancer cells; for Tumor Volume D17: day 17 after injection of cancer cells; for Tumor Volume D19: day 19 after injection of cancer cells; for Tumor Volume D21: day 21 after injection of cancer cells, day of treatment injection in hydrogel; for Tumor Volume D23: day 23 after injection of cancer cells, 48 hours after treatment in hydrogel; for Ki67 labeling quantification, Mean Center / CD31 labeling quantification, Center: tumor center
Source text: FIGS. 7A to 7E show the results of the analysis of the activity of the oligopeptide according to the invention on the proliferation, the vascularization, and the tumor growth in nude mice: • The images A, B and C of FIG. 7A show the immunolabeling of Ki-67 on tumor sections treated by H2O, TSP-1 or the oligopeptide according to the invention respectively. • The images D, E and F of FIG. 7A are magnifications (2×) of FIGS. A, B and C. • The images G, H and I of FIG. 7A represent the immunolabeling of CD31 on tumor sections that are treated by H2O, TSP-1 or the oligopeptide according to the invention respectively (the bars of the scale correspond to 500 μm). • The images J, K and L of FIG. 7A are magnifications (2×) of the images G, H and I.
The Ki-67 labeling was quantified under the various conditions using imageJ software, and comparisons between the center and the edge of tumors and between the conditions were carried out (FIG. 7B) by analysis of variances (ANOVA test). A value of p<0.05 is considered to be significant. * p<0.05 that is compared to the center of the same tumors; $ p<0.05 and $$ p<0.01 that is compared to the control. • The CD31 labeling was quantified under the various conditions using image J software, and comparisons between the center and the edge of tumors and between the conditions were carried out (FIG. 7C) by analysis of variances (ANOVA test). […] The injections of the treatments (hydrogel by itself, TSP-1 and the oligopeptide according to the invention (NX) were carried out on the 21st day (black arrow)). The comparison of the tumor sizes in comparison to the controls was carried out by analysis of variances (ANOVA test). ** p<0.01; *** p<0.001.
The experimentation on the mouse confirms the results that are obtained with the CAM model. In this case, the tumors were obtained from subcutaneous heterotopic grafts in the area of the leg of a nude mouse (FIGS. 7B, 7C and 7E).
Tables 6, 7 and 8: These tables correspond to the raw values that are obtained during various analyses conducted on the tumors that are treated in vivo. Analysis of the proliferation (Ki67 labeling quantification) (F), analysis of the vascularization (CD31 labeling quantification) (G) and analysis of the tumor growth as a function of time (measurement of the tumor volume) (H). “con,” “CTRL” and “hydrogel” treatments are control conditions, “TSP” and “TSP1” are the treatments with thrombospondin 1 (TSP-1), and NX is the treatment with the peptide according to the invention

[3] = nude mouse tumor sections, tumor edge

In the case of “thrombospondin 1 [TSP, reference compound]”, the “Protection of HBMEC from apoptosis (in words)” value (HBMEC cells) is reported as “this effect is not observed”, the “IL-8 secretion (in words)” value (U87-MG cells; medium of treated U87-MG cells) is reported as “significant increase in IL-8” and the “DPPIV/CD 26, proteome array” value (U87-MG cells) is reported as 0. For the same substance, the “Endoglin/CD105, proteome array” value (U87-MG cells) was 0.09236, the “Endothelin-1 (ET-1), proteome array” value (U87-MG cells) was 0.0994 and the “IGFBP-1, proteome array” value (U87-MG cells) was 1.724. For the same substance, the “IGFBP-3, proteome array” value (U87-MG cells) was 0.5713, the “IL-8/CXCL8, proteome array” value (U87-MG cells) was 2.901 and the “MCP-1/CCL2, proteome array” value (U87-MG cells) was 0.1534. For the same substance, the “NRG1-β1/HRG1-β1, proteome array” value (U87-MG cells) was 0, the “Pentraxin 3 (PTX3)/TSG-14, proteome array” value (U87-MG cells) was 0.7118 and the “Serpin E1/Pal-1, proteome array” value (U87-MG cells) was 0.855. The “TIMP-1, proteome array” value (U87-MG cells) was 4.593, the “TIMP-4, proteome array” value (U87-MG cells) was 2.041 and the “TSP-1, proteome array” value (U87-MG cells) was 0.08481. For the same substance, the “VEGF, proteome array” value (U87-MG cells) was 1.397, the “uPA, proteome array” value (U87-MG cells) was 1.489 and the “VEGF ELISA reading, Val1” value [1] was 0.5. For the same substance, the “VEGF ELISA reading, Val2” value [1] was 0.518, the “VEGF Mean” value [1] was 636.2 pg/mL and the “VEGF pg/mL1” value [1] was 621.2 pg/mL. For the same substance, the “VEGF pg/mL2” value [1] was 651.2 pg/mL, the “VEGF ELISA reading, Mean” value [1] was 0.509 and the “Tumor Volume D0” value ([2]; nude mice) was 0 mm^3. The “Tumor Volume D5” value ([2]; nude mice) was 33.55 mm^3, the “Tumor Volume D12” value ([2]; nude mice) was 29.93 mm^3 and the “Tumor Volume D17” value ([2]; nude mice) was 49.88 mm^3. The “Tumor Volume D19” value ([2]; nude mice) was 81.07 mm^3, the “Tumor Volume D21” value ([2]; nude mice) was 112.5 mm^3 and the “Tumor Volume D23” value ([2]; nude mice) was 101.9 mm^3. For the same substance, the “Ki67 labeling quantification, Mean Center” value ([2]; nude mouse tumor sections) was 200.3, the “CD31 labeling quantification, Center” value ([2]; nude mouse tumor sections, raw values, listed as TSP1) was 66 and 53 and 63 and 56 and the “Ki67 labeling quantification, Mean Edge” value [2, 3] was 228.2. For the same substance, the “CD31 labeling quantification, Edge” value ([2]; nude mouse tumor sections, tumor edge, raw values, listed as TSP1) was 53 and 42 and 39 and 45.

In the case of “—W—S-G-W—S—S—C—S—R—S—C-G- (WSGWSSCSRSCG; Oligopeptide derived from SCO-Spondin) [NX]”, the “Protection of HBMEC from apoptosis (in words)” value (HBMEC cells) is reported as “protects the HBMEC human endothelial cells from the apoptosis at a level similar to the VEGF”, the “MCP-1 secretion (in words)” value (U87-MG cells; medium of treated U87-MG cells) is reported as “large increase in MCP-1” and the “DPPIV/CD 26, proteome array” value (U87-MG cells) is reported as 0.08222. For the same substance, the “Endoglin/CD105, proteome array” value (U87-MG cells) was 0, the “Endothelin-1 (ET-1), proteome array” value (U87-MG cells) was 0.09418 and the “IGFBP-1, proteome array” value (U87-MG cells) was 1.165. For the same substance, the “IGFBP-3, proteome array” value (U87-MG cells) was 0.1856, the “IL-8/CXCL8, proteome array” value (U87-MG cells) was 1.698 and the “MCP-1/CCL2, proteome array” value (U87-MG cells) was 1.861. The “NRG1-β1/HRG1-β1, proteome array” value (U87-MG cells) was 0.1465, the “Pentraxin 3 (PTX3)/TSG-14, proteome array” value (U87-MG cells) was 0.6179 and the “Serpin E1/Pal-1, proteome array” value (U87-MG cells) was 0.8632. For the same substance, the “TIMP-1, proteome array” value (U87-MG cells) was 3.888, the “TIMP-4, proteome array” value (U87-MG cells) was 2.15 and the “TSP-1, proteome array” value (U87-MG cells) was 0.07983. For the same substance, the “VEGF, proteome array” value (U87-MG cells) was 1.021, the “uPA, proteome array” value (U87-MG cells) was 1.209 and the “VEGF-A in the supernatant of U87-MG (in words)” value [1] was “reduction in VEGF-A”. For the same substance, the “VEGF ELISA reading, Val1” value [1] was 0.333, the “VEGF ELISA reading, Val2” value [1] was 0.266 and the “VEGF Mean” value [1] was 287 pg/mL. The “VEGF pg/mL1” value [1] was 342.8 pg/mL, the “VEGF pg/mL2” value [1] was 231.2 pg/mL and the “VEGF ELISA reading, Mean” value [1] was 0.2995. For the same substance, the “Cell proliferation, Ki-67 labeling (in words)” value ([2]; nude mice tumors) was “decrease in the Ki-67 labeling”, the “CD31 labeling (in words)” value ([2]; nude mice tumors, periphery, compared with control) was “reduction in the CD31 labeling on the periphery” and the “Tumor volume change (in words)” value ([2]; nude mice, 48 hours after the treatment) was “decrease in volume”. The “Tumor Volume D0” value ([2]; nude mice) was 0 mm^3, the “Tumor Volume D5” value ([2]; nude mice) was 46.46 mm^3 and the “Tumor Volume D12” value ([2]; nude mice) was 39.04 mm^3. For the same substance, the “Tumor Volume D17” value ([2]; nude mice) was 70.6 mm^3, the “Tumor Volume D19” value ([2]; nude mice) was 78.82 mm^3 and the “Tumor Volume D21” value ([2]; nude mice) was 135.6 mm^3. For the same substance, the “Tumor Volume D23” value ([2]; nude mice) was 68.03 mm^3, the “Ki67 labeling quantification, Mean Center” value ([2]; nude mouse tumor sections) was 181.7 and the “CD31 labeling quantification, Center” value ([2]; nude mouse tumor sections, raw values) was 26 and 40 and 28 and 38. For the same substance, the “Ki67 labeling quantification, Mean Edge” value [2, 3] was 49.75.
